One assay has as its system TAG. Kind of assay: triacylglycerol accumulation inhibitor potency, dose response, cell-based, panel, Nile Red and DAPI fluorescence, H9c2 (AID 651630).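 Note: cells exposed to compound overnight before fixation and staining.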 The following applies: H9c2 cells, Nile Red TAG fluorescence, oleic acid.
For another assay, the system named is DAPI. Described as above. The note with it: H9c2 cells, DAPI nuclear fluorescence (cytotoxicity counter-readout), oleic acid.

Calls of active or inactive are those of the source.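 Rule for the calls: active = lipid-stain IC50 at or below a set limit, with nuclear-stain toxicity IC50 at least five times higher; inactive = the rest.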

In the case of `CCN1CCN(c2ncc3c(n2)CC(c2cc(OC)c(OC)c(OC)c2)CC3=O)CC1` (configuration not stated), the IC50 was > 25 µM (inactive) in the assay on TAG (mean of runs), more than 25 µM with TAG (run 1) and more than 25 µM with TAG (run 2). The IC50 cytotoxicity (DAPI nuclear signal decrease) in the assay with DAPI (mean of runs) is > 25 µM (inactive); in the assay on DAPI (run 1) it was more than 25 µM; with DAPI (run 2) it was more than 25 µM.

With `COc1cc(C(CCN2CCCCC2)c2c(OC)cc(OC)c3c(-c4ccccc4)cc(=O)oc23)cc(OC)c1OC` (configuration not stated), the IC50 in the assay with TAG (mean of runs) is > 25 µM (inactive); with TAG (run 1), more than 25 µM; in the assay on TAG (run 2), more than 25 µM. Further, the figures for the IC50 cytotoxicity (DAPI nuclear signal decrease) in the assay with DAPI (mean of runs), in the assay on DAPI (run 1) and in the assay with DAPI (run 2) were > 25 µM (inactive), more than 25 µM and more than 25 µM, respectively.

In the case of `NC(Cc1ccc(F)cc1)c1csc(Nc2ccc(C(F)(F)F)cn2)n1` (configuration not stated), the IC50 in the assay on TAG (run 1) is more than 25 µM; with TAG (run 2), 8.35 µM. Also, the IC50 cytotoxicity (DAPI nuclear signal decrease) in the assay on DAPI (run 1) is more than 25 µM; in the assay with DAPI (run 2) it was 23.8 µM.

With `C#CCN(C[C@H]1[C@H](OC(=O)NCC2CCCCC2)[C@H](OC(=O)NCC2CCCCC2)C[C@@H](C(=O)OC)[C@H]1C(=O)OC)S(=O)(=O)c1ccc(C)cc1`, the results for the IC50 in the assay with TAG (mean of runs), in the assay on TAG (run 1) and with TAG (run 2) were 4.93 µM, 4.53 µM and 5.33 µM, respectively. Besides, the IC50 cytotoxicity (DAPI nuclear signal decrease) in the assay with DAPI (run 1) and in the assay on DAPI (run 2) was more than 25 µM each time.

Turning to `COc1cccc(-c2nc(-c3ccc(NC(=O)Cc4ccccc4OC)cc3)no2)c1`, the values for the IC50 in the assay on TAG (mean of runs), with TAG (run 1) and in the assay with TAG (run 2) were 4.52 µM, 3.4 µM and 5.64 µM, respectively. Also, the IC50 cytotoxicity (DAPI nuclear signal decrease) in the assay with DAPI (run 1) and with DAPI (run 2) was more than 25 µM throughout.

On to `CCCC[C@H](CN[C@@H](CNC)[C@H](C)CC)NCCC12CCC(CC1)C2`, for which the IC50 with TAG (mean of runs) was > 25 µM (inactive); in the assay on TAG (run 1), more than 25 µM; in the assay on TAG (run 2) it was more than 25 µM. In addition, the IC50 cytotoxicity (DAPI nuclear signal decrease) in the assay on DAPI (run 1) was 17.8 µM; with DAPI (run 2), more than 25 µM.

Consider `Nc1cc2c(cc1Br)[nH]c(=O)c1ccccc12`, for which the IC50 in the assay on TAG (mean of runs) was 8.3 µM; in the assay with TAG (run 1), 8.66 µM; in the assay on TAG (run 2) it was 7.94 µM. The IC50 cytotoxicity (DAPI nuclear signal decrease) in the assay on DAPI (mean of runs) was > 25 µM (inactive); in the assay with DAPI (run 1) it was more than 25 µM; in the assay on DAPI (run 2), more than 25 µM.

As for `COC(=O)C=C1CCC2C3CCC4=CC(=O)C(Br)CC4(C)C3C(=O)CC12C` (configuration not stated), the half-inhibitory concentration (IC50) in the assay with TAG (mean of runs) is 9.84 µM; in the assay with TAG (run 1) it was 9.51 µM; in the assay with TAG (run 2) it was 10.2 µM. Also, the IC50 cytotoxicity (DAPI nuclear signal decrease) is more than 25 µM in the assay on DAPI (run 1) and 22.3 µM in the assay with DAPI (run 2).

For the compound `CC(=O)c1cccc(-c2ccnc3c2CC(C(=O)NCc2ccco2)O3)c1` (configuration not stated), the IC50 with TAG (mean of runs) is > 25 µM (inactive); with TAG (run 1), more than 25 µM; with TAG (run 2), more than 25 µM. For the same compound, the IC50 cytotoxicity (DAPI nuclear signal decrease) was > 25 µM (inactive) in the assay on DAPI (mean of runs), more than 25 µM in the assay on DAPI (run 1) and more than 25 µM with DAPI (run 2).

Regarding `CN1CCCC(n2nc(Cc3ccc(Cl)cc3)c3ccccc3c2=O)CC1` (configuration not stated), the IC50 with TAG (mean of runs) was 18.3 µM (inactive); in the assay with TAG (run 1), 24.2 µM; in the assay with TAG (run 2), 12.4 µM. The IC50 cytotoxicity (DAPI nuclear signal decrease) is > 25 µM (inactive) with DAPI (mean of runs), more than 25 µM in the assay on DAPI (run 1) and more than 25 µM in the assay on DAPI (run 2).

For the compound `Cc1ccccc1NC(=O)CSc1nc2ccc(Nc3nc(N4CCOCC4)nc(N4CCOCC4)n3)cc2s1`, the IC50 is 10.7 µM in the assay on TAG (mean of runs), 10.6 µM in the assay on TAG (run 1) and 10.8 µM in the assay on TAG (run 2). Besides, the IC50 cytotoxicity (DAPI nuclear signal decrease) was > 25 µM (inactive) with DAPI (mean of runs), more than 25 µM in the assay with DAPI (run 1) and more than 25 µM with DAPI (run 2).

Turning to `CCOc1c(Br)cc(CNC2CCCCCCC2)cc1OC`, the values for the IC50 in the assay with TAG (mean of runs), in the assay on TAG (run 1) and in the assay with TAG (run 2) were > 25 µM (inactive), more than 25 µM and more than 25 µM, respectively. The IC50 cytotoxicity (DAPI nuclear signal decrease) is 19.7 µM (inactive) with DAPI (mean of runs), 18.8 µM in the assay on DAPI (run 1) and 20.6 µM in the assay with DAPI (run 2).

`CCOC(=O)c1[nH]c2ccc(OCC)cc2c1NC(=O)CN1CCN(c2ccccc2)CC1`: the figures for the IC50 in the assay with TAG (mean of runs), in the assay with TAG (run 1) and in the assay on TAG (run 2) were 22.7 µM (inactive), 20.4 µM and 25 µM, respectively. Moreover, the IC50 cytotoxicity (DAPI nuclear signal decrease) is > 25 µM (inactive) in the assay with DAPI (mean of runs), more than 25 µM in the assay on DAPI (run 1) and more than 25 µM with DAPI (run 2).

For `O=C1C(Cl)=C(NCc2ccco2)C(=O)c2ccccc21`, the IC50 was > 25 µM (inactive) in the assay with TAG (mean of runs), more than 25 µM in the assay with TAG (run 1) and more than 25 µM in the assay with TAG (run 2). Further, the IC50 cytotoxicity (DAPI nuclear signal decrease) in the assay with DAPI (mean of runs) was > 25 µM (inactive); in the assay on DAPI (run 1) it was more than 25 µM; in the assay with DAPI (run 2), more than 25 µM.

On to `CCCCCc1cc(=O)oc2c(C(CCN3CCN(c4ccccc4)CC3)c3ccc4c(c3)OCO4)c(OC)cc(OC)c12` (configuration not stated), for which the IC50 is 8.04 µM in the assay on TAG (mean of runs), 8.42 µM in the assay with TAG (run 1) and 7.65 µM with TAG (run 2). Besides, the IC50 cytotoxicity (DAPI nuclear signal decrease) with DAPI (mean of runs) was > 25 µM (inactive); in the assay with DAPI (run 1) it was more than 25 µM; in the assay on DAPI (run 2), more than 25 µM.

Take `COc1cccc(C2c3c(C)nn(-c4ccc([N+](=O)[O-])cc4)c3N=C3C(=O)Nc4ccccc4N32)c1` (configuration not stated): the values for the IC50 with TAG (mean of runs), in the assay with TAG (run 1) and in the assay with TAG (run 2) were 7.79 µM, 7.32 µM and 8.26 µM, respectively. Further, the IC50 cytotoxicity (DAPI nuclear signal decrease) was > 25 µM (inactive) in the assay with DAPI (mean of runs), more than 25 µM in the assay with DAPI (run 1) and more than 25 µM in the assay with DAPI (run 2).

Take `COc1ccc(CC(=O)Nc2ccc(-c3nnc(-c4ccc(C)cc4)o3)cc2)cc1`: the IC50 is > 25 µM (inactive) in the assay with TAG (mean of runs), more than 25 µM in the assay with TAG (run 1) and more than 25 µM in the assay on TAG (run 2). The IC50 cytotoxicity (DAPI nuclear signal decrease) in the assay on DAPI (mean of runs) was > 25 µM (inactive); in the assay on DAPI (run 1) it was more than 25 µM; in the assay with DAPI (run 2), more than 25 µM.

On to `CC(C)c1ccc(Nc2ncc3c(n2)CCN(C(=O)Nc2ccc(F)c(Cl)c2)C3)cc1`, for which the IC50 was 4.65 µM in the assay on TAG (mean of runs), 2.95 µM in the assay on TAG (run 1) and 6.36 µM in the assay on TAG (run 2). The IC50 cytotoxicity (DAPI nuclear signal decrease) with DAPI (run 1) and in the assay on DAPI (run 2) was more than 25 µM in each case.

In the case of `C[C@H](O)[C@@H]1CN2CCc3c([nH]c4ccc(-c5ccc6c(c5)OCO6)cc34)[C@@H]2C[C@@H]1N(C)C(=O)Nc1ccc(F)cc1`, the results for the IC50 with TAG (mean of runs), with TAG (run 1) and in the assay on TAG (run 2) were 11 µM, 7.28 µM and 14.7 µM, respectively. Moreover, the results for the IC50 cytotoxicity (DAPI nuclear signal decrease) in the assay on DAPI (mean of runs), with DAPI (run 1) and with DAPI (run 2) were > 25 µM (inactive), more than 25 µM and more than 25 µM, respectively.

Consider `CN(C)CCCNC(=O)C[C@H]1C[C@H](C(=O)N2CCCCC2)[C@@]2(CCc3ccccc3)c3[nH]c4cc(-c5ccco5)ccc4c3CCN2C1=O`, for which the IC50 was more than 25 µM in the assay on TAG (run 1) and 14.5 µM with TAG (run 2). Further, the results for the IC50 cytotoxicity (DAPI nuclear signal decrease) in the assay with DAPI (mean of runs), with DAPI (run 1) and in the assay on DAPI (run 2) were > 25 µM (inactive), more than 25 µM and more than 25 µM, respectively.

Consider `Cc1cc(Nc2ccc(C)c(Cl)c2)nc(N2CCOCC2)n1`, for which the IC50 in the assay with TAG (mean of runs) is > 25 µM (inactive); in the assay with TAG (run 1), more than 25 µM; with TAG (run 2) it was more than 25 µM. Also, the IC50 cytotoxicity (DAPI nuclear signal decrease) in the assay on DAPI (mean of runs) is > 25 µM (inactive); with DAPI (run 1), more than 25 µM; in the assay on DAPI (run 2), more than 25 µM.

As for `COC(=O)[C@@]1(Cc2ccc(OC)cc2)[C@@H]2C(=CC(=O)[C@H]2CC(=O)C(=O)N2CCCC2)CN1C(=O)c1ccccc1`, the results for the IC50 in the assay on TAG (mean of runs), in the assay on TAG (run 1) and in the assay on TAG (run 2) were > 25 µM (inactive), more than 25 µM and more than 25 µM, respectively. The IC50 cytotoxicity (DAPI nuclear signal decrease) in the assay on DAPI (run 1) is 21 µM; in the assay on DAPI (run 2), more than 25 µM.

In the case of `COC(=O)C1=C(C)N(Cc2ccccc2)C(=NCC(C)C)N[C@H]1c1cccc(F)c1`, the IC50 in the assay on TAG (mean of runs) is > 25 µM (inactive); in the assay with TAG (run 1) it was more than 25 µM; in the assay on TAG (run 2), more than 25 µM. Besides, the IC50 cytotoxicity (DAPI nuclear signal decrease) in the assay on DAPI (mean of runs) is > 25 µM (inactive); in the assay on DAPI (run 1), more than 25 µM; with DAPI (run 2), more than 25 µM.

As to `CC(C)=CCNc1ncnc2c1c(C#N)cn2C1OC(CO)C(O)C1O` (configuration not stated), the IC50 with TAG (mean of runs) is > 25 µM (inactive); with TAG (run 1), more than 25 µM; in the assay with TAG (run 2), more than 25 µM. The IC50 cytotoxicity (DAPI nuclear signal decrease) with DAPI (mean of runs) is > 25 µM (inactive); with DAPI (run 1) it was more than 25 µM; with DAPI (run 2), more than 25 µM.

Turning to `Cc1ccc(NC(=S)N(CCCN2CCCC2)Cc2cccn2Cc2ccc(Cl)cc2)cc1Cl`, the IC50 is > 25 µM (inactive) with TAG (mean of runs), more than 25 µM in the assay on TAG (run 1) and more than 25 µM in the assay with TAG (run 2). The IC50 cytotoxicity (DAPI nuclear signal decrease) with DAPI (run 1) is more than 25 µM; with DAPI (run 2) it was 23.1 µM.

As to `NC(=O)c1cccc(-c2ccnc3c2CC(C(=O)NCc2ccccc2)O3)c1` (configuration not stated), the IC50 was > 25 µM (inactive) in the assay on TAG (mean of runs), more than 25 µM in the assay on TAG (run 1) and more than 25 µM in the assay with TAG (run 2). Further, the IC50 cytotoxicity (DAPI nuclear signal decrease) in the assay with DAPI (mean of runs) was > 25 µM (inactive); with DAPI (run 1), more than 25 µM; with DAPI (run 2), more than 25 µM.

With `Cc1ccc2nc(NC(=O)CN(C)S(=O)(=O)c3cccc4nsnc34)sc2c1`, the IC50 in the assay on TAG (mean of runs) was 10.5 µM; in the assay with TAG (run 1), 11.1 µM; with TAG (run 2) it was 9.95 µM. For the same compound, the IC50 cytotoxicity (DAPI nuclear signal decrease) was > 25 µM (inactive) in the assay on DAPI (mean of runs), more than 25 µM with DAPI (run 1) and more than 25 µM in the assay on DAPI (run 2).

As a reminder, the IC50 is the midpoint of a concentration-inhibition curve.

Source of the values: PubChem BioAssay AID651630 (Sanford-Burnham Center for Chemical Genomics, 2012).
